For one series, the target named is T1, human NNMT (mt-hNNMT) (Homo sapiens, UniProt P40261, E101A/E103A/K100A).
T1 sequence (P40261 1-261 K100A/E101A/E103A limits assumed): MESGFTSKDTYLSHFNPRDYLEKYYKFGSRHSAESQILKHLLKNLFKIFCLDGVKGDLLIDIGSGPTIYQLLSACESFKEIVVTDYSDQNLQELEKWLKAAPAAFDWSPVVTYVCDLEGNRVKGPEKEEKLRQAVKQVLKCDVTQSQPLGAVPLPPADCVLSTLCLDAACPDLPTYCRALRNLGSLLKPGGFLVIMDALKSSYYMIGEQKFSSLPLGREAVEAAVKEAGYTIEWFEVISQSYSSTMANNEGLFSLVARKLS
Nature of the series: NNMT activity assay (HPLC-UV detection of MNA), NNMT IC50 curves. The settings on record: NNMT IC50.

Series [1] has as its target T2, recombinant human COMT enzyme (Homo sapiens, UniProt P21964).
T2 construct: Reaction Biology Corporation (ran the assay)
T2 sequence (P21964 1-271): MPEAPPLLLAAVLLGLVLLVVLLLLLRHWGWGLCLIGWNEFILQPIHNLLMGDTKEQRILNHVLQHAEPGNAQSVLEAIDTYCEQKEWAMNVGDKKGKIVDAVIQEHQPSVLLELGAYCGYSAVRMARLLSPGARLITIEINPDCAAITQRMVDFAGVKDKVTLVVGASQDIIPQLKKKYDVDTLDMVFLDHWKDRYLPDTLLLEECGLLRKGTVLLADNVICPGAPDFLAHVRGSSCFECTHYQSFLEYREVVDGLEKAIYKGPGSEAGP
Nature of the series: COMT activity assay (radiometric). The format is biochemical. To be noted: maximal tested concentration 600 μM.

For series [2], the system named is differentiated adipocytes (3T3 cells). Nature of the series: Quantitative measurement of selected metabolites (NA, SAM, SAH, NAD+) in cultured cells. The format is cell-based. As for the experimental part: Sample processing was performed as described above.
Series [3] addresses recombinant human PRMT3 enzyme (Homo sapiens, UniProt O60678). The series can be described thus: PRMT3 activity assay (radiometric). The series is classed as biochemical. To be noted: 10 nM to 200 μM (1,8-diMQ) or 600 μM (5-amino-1MQ). An excerpt: Test compounds were screened in biochemical assays for activity against three structurally similar methyltransferases, including catechol-O-methyltransferase (COMT), DNA (cytosine-5)-methyltransferase 1 (DNMT1), and protein arginine methyltransferase 3 (PRMT3). Additional biochemical assays were used to test the ability of compounds to inhibit nicotinamide phosphoribosyl transferase (NAMPT) and NAD+-dependent protein deacetylase sirtuin 1 (SIRT1), two enzymes in the NAD+ biosynthesis/salvage pathway. All assays were performed by Reaction Biology Corporation (RBC; Malvern, Pa., USA) and complete assay details are noted below. For each test compound, IC50 values were calculated from dose-response curves established with 10 concentrations of a half-log dilution series. For each assay, established enzyme specific inhibitors were included as positive controls for enzyme function and assay reproducibility. IC50 values were determined by non-linear least-squares fitting of a 4-parameter dose-response curve to collected data points (Graphpad Prism 7.0; La Jolla, Calif., USA).
PRMT3 activity assay. […] The analogues, 1,8-diMQ and 5-amino-1MQ were tested at concentrations from 200 μM-10 nM and 600 μM-10 nM, respectively. Reactions were performed with 5 μM histone H3 (histone L-arginine) substrate, 1 μM radiolabeled S-adenosyl-L-[methyl-3H]methionine (SAM) co-substrate, and recombinant human PRMT3 enzyme. Activity was monitored via quantification of radiolabeled reaction product histone [methyl-3H]-L-arginine.

Series [4] concerns the target T3, recombinant human SIRT-1 (NAD+-dependent) enzyme (Homo sapiens, UniProt Q96EB6).
T3 construct: Reaction Biology Corporation (ran the assay)
T3 sequence (Q96EB6 1-747): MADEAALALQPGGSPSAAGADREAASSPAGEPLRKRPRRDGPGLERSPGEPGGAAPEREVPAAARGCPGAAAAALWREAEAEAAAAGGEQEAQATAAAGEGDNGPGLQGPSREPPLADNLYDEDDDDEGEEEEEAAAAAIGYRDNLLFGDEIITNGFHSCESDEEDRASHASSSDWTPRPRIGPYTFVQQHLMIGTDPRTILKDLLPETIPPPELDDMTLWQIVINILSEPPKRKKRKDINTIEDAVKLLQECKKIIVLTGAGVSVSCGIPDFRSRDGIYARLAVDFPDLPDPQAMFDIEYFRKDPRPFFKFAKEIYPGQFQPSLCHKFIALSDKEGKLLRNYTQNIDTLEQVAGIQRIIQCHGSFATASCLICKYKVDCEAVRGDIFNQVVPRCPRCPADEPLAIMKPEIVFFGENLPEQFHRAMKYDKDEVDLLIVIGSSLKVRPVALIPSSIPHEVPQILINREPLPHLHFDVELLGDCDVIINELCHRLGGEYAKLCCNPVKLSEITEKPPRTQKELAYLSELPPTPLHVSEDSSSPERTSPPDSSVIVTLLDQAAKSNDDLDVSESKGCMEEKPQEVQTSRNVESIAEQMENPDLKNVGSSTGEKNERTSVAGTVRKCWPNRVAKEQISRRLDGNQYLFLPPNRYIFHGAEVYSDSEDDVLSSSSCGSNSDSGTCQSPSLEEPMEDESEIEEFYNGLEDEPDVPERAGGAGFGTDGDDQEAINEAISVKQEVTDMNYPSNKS
The series can be described thus: SIRT-1 activity assay (fluorometric). The format is biochemical.

Series [5] in a line: Parallel artificial membrane permeability assay (PAMPA). The format is in vitro ADME. As for the experimental part: Samples were tested in triplicates in three separate experiments.
Background: The PAMPA barrier holds no transporters, so it reflects passive diffusion.

Series [6] has as its target recombinant human DNMT1 enzyme (Homo sapiens, UniProt P26358). Nature of the series: DNMT1 activity assay (radiometric). The format is biochemical.
Series [7] deals with recombinant human NAMPT enzyme (Homo sapiens, UniProt P43490). Nature of the series: NAMPT activity assay (fluorometric). The format is biochemical.

As usually defined, the IC50 is the concentration needed to halve the response being measured. By inhibition is commonly meant the percentage by which the read-out fell short of the control.

SMILES strings stand for the structures. Where “and” joins values, the source holds several entries; their conditions need not be identical. Identical values can stand only once. Entries after “also recorded” stand apart in the source; their conditions may differ.

Chain of recombinant human NAMPT enzyme (P43490 whole entry): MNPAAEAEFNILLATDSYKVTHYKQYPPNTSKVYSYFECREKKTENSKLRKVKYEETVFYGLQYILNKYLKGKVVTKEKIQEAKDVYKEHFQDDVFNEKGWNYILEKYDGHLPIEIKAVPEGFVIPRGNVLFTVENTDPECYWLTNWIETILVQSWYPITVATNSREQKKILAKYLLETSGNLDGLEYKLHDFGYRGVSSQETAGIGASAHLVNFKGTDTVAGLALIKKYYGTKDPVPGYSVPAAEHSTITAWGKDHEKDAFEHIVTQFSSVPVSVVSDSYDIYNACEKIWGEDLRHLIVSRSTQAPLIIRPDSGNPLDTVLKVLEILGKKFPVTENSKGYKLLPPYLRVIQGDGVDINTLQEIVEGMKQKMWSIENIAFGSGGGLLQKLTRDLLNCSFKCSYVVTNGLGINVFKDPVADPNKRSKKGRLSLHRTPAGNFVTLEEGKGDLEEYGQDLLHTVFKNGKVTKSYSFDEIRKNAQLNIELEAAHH
Chain of recombinant human DNMT1 enzyme (P26358 whole entry): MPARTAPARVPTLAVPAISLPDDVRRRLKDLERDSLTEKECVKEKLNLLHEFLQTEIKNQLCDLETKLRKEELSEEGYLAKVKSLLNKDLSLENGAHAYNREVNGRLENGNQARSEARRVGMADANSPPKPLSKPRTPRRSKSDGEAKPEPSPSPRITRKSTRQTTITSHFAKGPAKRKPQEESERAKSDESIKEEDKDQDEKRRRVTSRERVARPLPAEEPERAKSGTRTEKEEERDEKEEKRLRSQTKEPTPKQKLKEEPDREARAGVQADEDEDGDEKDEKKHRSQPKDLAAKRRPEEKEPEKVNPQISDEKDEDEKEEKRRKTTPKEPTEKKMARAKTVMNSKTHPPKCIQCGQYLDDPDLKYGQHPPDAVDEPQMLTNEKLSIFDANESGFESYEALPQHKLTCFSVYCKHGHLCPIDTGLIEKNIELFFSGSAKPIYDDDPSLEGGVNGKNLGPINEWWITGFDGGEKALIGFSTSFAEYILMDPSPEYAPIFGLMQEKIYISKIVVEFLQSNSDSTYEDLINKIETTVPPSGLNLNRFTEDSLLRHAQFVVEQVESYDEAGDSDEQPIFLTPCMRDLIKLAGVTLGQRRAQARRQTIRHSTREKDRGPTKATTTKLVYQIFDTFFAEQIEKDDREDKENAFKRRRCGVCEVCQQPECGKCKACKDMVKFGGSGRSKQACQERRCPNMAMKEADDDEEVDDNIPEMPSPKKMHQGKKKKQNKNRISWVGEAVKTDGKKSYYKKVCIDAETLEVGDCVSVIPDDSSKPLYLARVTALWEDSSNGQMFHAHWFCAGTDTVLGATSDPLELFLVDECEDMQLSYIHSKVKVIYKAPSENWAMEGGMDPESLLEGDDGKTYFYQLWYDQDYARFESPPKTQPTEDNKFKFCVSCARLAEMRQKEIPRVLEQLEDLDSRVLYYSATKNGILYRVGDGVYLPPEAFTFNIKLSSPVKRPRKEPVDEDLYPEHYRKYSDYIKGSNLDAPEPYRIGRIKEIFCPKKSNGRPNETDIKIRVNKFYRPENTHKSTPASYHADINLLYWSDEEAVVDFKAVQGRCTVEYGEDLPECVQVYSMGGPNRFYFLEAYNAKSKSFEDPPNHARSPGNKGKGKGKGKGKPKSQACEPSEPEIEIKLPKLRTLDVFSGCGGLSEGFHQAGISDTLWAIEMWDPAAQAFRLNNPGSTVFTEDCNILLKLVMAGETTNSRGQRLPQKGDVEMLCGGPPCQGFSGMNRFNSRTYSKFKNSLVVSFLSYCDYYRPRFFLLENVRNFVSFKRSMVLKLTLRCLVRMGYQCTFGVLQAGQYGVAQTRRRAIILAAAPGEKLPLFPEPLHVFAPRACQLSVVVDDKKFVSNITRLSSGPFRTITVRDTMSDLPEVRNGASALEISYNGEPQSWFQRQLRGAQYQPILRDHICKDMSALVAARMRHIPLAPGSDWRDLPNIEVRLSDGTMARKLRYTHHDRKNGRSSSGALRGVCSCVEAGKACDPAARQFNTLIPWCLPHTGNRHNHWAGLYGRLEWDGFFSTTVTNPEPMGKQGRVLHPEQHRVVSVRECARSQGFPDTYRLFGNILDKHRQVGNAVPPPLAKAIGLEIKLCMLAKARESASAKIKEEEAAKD
Chain of recombinant human PRMT3 enzyme (O60678 whole entry): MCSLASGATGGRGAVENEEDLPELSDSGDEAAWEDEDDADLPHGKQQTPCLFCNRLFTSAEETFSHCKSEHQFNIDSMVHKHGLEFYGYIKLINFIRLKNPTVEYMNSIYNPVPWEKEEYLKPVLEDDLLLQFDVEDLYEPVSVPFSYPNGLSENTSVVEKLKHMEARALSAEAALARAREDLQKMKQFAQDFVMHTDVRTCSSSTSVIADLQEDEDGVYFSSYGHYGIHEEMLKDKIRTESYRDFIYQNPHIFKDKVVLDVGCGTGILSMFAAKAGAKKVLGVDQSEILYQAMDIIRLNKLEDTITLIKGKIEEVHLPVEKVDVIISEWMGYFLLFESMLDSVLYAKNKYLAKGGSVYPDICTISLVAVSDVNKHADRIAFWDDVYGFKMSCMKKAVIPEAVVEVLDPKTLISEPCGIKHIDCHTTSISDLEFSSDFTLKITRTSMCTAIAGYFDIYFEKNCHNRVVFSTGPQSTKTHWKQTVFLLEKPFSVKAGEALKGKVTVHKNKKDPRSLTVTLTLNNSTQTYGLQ

`C[n+]1cccc2c(N)cccc21` [1j, 5-amino-1-methylquinolin-1-ium iodide]: the IC50 against human NNMT (mt-hNNMT) is 1200 nM and ~1000 nM; in series [6] (NI: no inhibition, read-out: IC50, DNA (cytosine-5)-methyltransferase 1), more than 200000 nM; in series [7] (concentrations above 100 μM could not be tested (assay interference), read-out: IC50, Nicotinamide phosphoribosyl transferase), more than 100000 nM. Besides, the inhibition at 600 µM in series [1] came to 10%. Also, the “NAD+ levels vs. control” value in series [2] (10 μM) is on record as “significant increase”. Besides, the “intracellular SAM levels relative to control adipocytes” value in series [2] (30 μM) is “significant increase”. The “increase in NAD+ levels relative to control adipocytes” value in series [2] (1-60 μM) is reported as 1.2-1.6 fold. Moreover, the “intracellular levels of NA” value in series [2] (one-way ANOVA) is given as “no statistically significant main effect”. In addition, in series [2] (one-way ANOVA), the “intracellular levels of SAH” value was “no statistically significant main effect”. The “inhibition of PRMT3 (in words)” value in series [3] is listed as “did not inhibit”. Moreover, the “inhibition of SIRT1 (in words)” value in series [4] (10 nM-300 μM) is given as “did not inhibit”. Also, in series [4] (600 μM), the “SIRT1 activity (in words)” value was “minor reduction in SIRT1 activity”. Further, in series [5] (400 μM in PBS, 4 h, room temperature, read-out: Flux), the Papp at 4 h, 400 μM was found to be 3.01 ×10⁻⁶ cm/s. For the same compound, the “Permeability Classification (passive transport)” value in series [5] (BCS classification, listed as 5-amino-1MQ) was “high passive and active transport; also recorded: High permeability”. Also, the “inhibition of DNMT1 (in words)” value in series [6] (10 nM to 200 μM (1,8-diMQ) or 600 μM (5-amino-1MQ)) is listed as “did not inhibit”. In addition, the “inhibition of NAMPT (in words)” value in series [7] (up to 100 μM) is given as “did not inhibit”.

For the origin of these results see US11401243B2, “Quinoline derived small molecule inhibitors of nicotinamide N-methyltransferase (NNMT) and uses thereof” (priority 2017, dated 2022).
